≈ marks a conversion by molar mass, not a printed value. Where “and” joins values, the source holds several entries; their conditions need not be identical. Equal values may be shown once. Values belong to the molecule of their own block, whether it stands above or below them.
What was measured:
[1] = Pharmacokinetics in mice; type: in vivo, mouse; details: SQ injection of 10 mg/Kg, in words; 10 mg/kg
Description: Wildtype or non-transgenic (NTg) C57Bl6 mice or Sprague-Dawley rats were dosed by oral (gavage) or subcutaneous (SQ) injection at 10 or 30 mg/kg, and animals were euthanized 1, 2, 6, and 8 h after administration by ketamine/xylazine over-anesthesia, in rats, CSF was also collected, followed by transcardial collection of blood for isolation of plasma and saline perfusion. Brain tissue was collected post-mortem for assessment of compound levels and biomarkers.
Analyses of compound levels in PK studies were performed in the UCLA Pasarow Mass Spectrometry Lab (PMSL; Julian Whitelegge, Ph.D., Director). Tissues were homogenized in a bead beater using 5 vol of ice-cold 80 % acetonitrile (1/5; mg of brain/μL of 80 % ACN). Plasma analytes were extracted using 4 vol of ice-cold acetonitrile (1/4; μL of plasma/μL of 100 % ACN). Solutions were clarified by centrifugation (16,000×g, 5 min) and the supernatants were transferred to new tubes and lyophilized. Samples were reconstituted in 100 μL of 50/50/0.1 (Water/Acetonitrile/Formic Acid) prior to analysis via liquid chromatography-tandem mass spectrometry (LC-MS/MS).
An internal standard (IS) was added to every sample to account for compound loss during sample processing. Standards were made in drug naïve plasma and tissue lysates with increasing amounts of analyte (S1, S2: 0 pmol/S3, S4: 1 pmol/S5, S6: 10 pmol/S7, S8: 100 pmol, S9, S10: 1000 pmol). The standard curve was made by plotting the known amount of analyte per standard vs. the ratio of measured chromatographic peak areas corresponding to the analyte over that of the IS (analyte/IS). The trendline equation was then used to calculate the absolute concentrations of each compound in plasma and tissue.
The targeted LC-MS/MS assay was developed using the multiple reaction monitoring (MRM) acquisition method on a 6460 triple quadrupole mass spectrometer (Agilent Technologies) coupled to a 1290 Infinity HPLC system (Agilent Technologies) with a Phenomenex analytical column (Kinetex 1.7 μm C18 100 Å 100 × 2.1 mm). The HPLC method utilized a mixture of solvent A (99.9/0.1 Water/Formic Acid) and solvent B (99.9/0.1 Acetonitrile/Formic Acid) and a gradient was use for the elution of the compounds (min/%B: 0/1, 3/1, 19/99, 20/1, 30/1). Two fragment ions were monitored at specific LC retention times to ensure specificity and accurate quantification in the complex biological samples. The normalized chromatographic peak areas were determined by taking the ratio of measured chromatographic peak areas corresponding to the compound over that of the internal standard (Analyte/IS).
The Tmax, Cmax, brain-to-plasma ratios and brain levels were then calculated using PK Solutions software (SummitPK).

[2] = target: BACE1 (Homo sapiens, UniProt P56817); assay: P5-P5′ BACE1 inhibition assay; type: biochemical; details: for IC50: cell-free, read-out: BACE1 IC50 (P5-P5′ assay; BACE1-APP)
BACE1, sequence (P56817 46-501): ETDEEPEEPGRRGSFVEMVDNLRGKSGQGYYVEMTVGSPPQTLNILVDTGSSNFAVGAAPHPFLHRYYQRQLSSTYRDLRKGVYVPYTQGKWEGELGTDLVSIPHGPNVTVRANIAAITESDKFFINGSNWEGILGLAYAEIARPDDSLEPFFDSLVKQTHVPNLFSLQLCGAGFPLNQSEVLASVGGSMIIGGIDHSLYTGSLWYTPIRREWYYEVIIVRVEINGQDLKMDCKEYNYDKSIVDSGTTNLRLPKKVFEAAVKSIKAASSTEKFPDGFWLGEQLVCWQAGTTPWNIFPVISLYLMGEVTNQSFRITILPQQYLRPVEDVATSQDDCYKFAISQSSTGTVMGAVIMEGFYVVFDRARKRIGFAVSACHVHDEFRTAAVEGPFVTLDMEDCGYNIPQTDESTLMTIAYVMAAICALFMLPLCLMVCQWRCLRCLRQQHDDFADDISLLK

[3] = system: CHO-7W cells expressing wildtype human APP; assay: sAPPβ and Aβ1-42 production in CHO-7W cells (AlphaLISA); type: cell-based, Chinese hamster; details: in words
Description: Culture Media was collected and frozen. Media was assayed using an AlphaLISA for Aβ1-42 (Perkin Elmer catalog # AL276C), sAPPα (R&D Systems catalog # AF1168 conjugated with Perkin Elmer acceptor beads catalog # 6772001 + 2B3 antibody from IBL catalog # 11088 biotinylated), and sAPPβ (Perkin Elmer AL276-acceptor + IBL catalog # 18957 biotinylated). For the assay, 2 μL of diluted or undiluted sample was added to a 384 well plate, followed by 2 μL of the respective antibody mixture. This was incubated for 1 h. Afterwards, 2 μL of donor beads was added to each well, followed by a 30-min incubation in the dark, after which the signal was read.

[4] = target: eAPP (Homo sapiens, UniProt P05067); assay: APP binding by surface plasmon resonance (SPR)
eAPP, sequence (P05067 18-701): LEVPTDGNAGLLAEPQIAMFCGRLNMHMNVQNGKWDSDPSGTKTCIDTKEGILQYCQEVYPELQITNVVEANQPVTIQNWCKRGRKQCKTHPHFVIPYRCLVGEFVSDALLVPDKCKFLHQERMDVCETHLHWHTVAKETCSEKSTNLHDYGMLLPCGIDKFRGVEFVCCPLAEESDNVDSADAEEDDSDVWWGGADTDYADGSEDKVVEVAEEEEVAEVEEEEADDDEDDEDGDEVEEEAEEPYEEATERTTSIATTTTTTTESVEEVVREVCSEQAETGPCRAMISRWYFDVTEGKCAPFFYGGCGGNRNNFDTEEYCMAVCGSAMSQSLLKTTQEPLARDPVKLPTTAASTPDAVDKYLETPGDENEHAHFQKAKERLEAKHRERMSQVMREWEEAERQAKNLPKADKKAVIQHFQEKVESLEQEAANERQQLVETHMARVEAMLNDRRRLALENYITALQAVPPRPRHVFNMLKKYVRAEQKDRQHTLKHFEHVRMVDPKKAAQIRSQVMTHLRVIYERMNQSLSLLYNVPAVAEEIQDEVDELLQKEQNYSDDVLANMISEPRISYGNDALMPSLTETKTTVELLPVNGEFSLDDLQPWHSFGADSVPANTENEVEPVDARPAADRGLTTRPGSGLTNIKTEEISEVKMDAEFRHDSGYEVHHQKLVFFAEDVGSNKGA

[5] = target: T1, BACE1 cleavage of NRG1 (Homo sapiens, UniProt P56817); assay: SEAP-NRG assay; type: cell-based; details: at ∼1 μM, in words
T1 construct: with or without full-length wild-type BACE1; expressed in transfected cells; host or cells: HEK293
T1 sequence (P56817 46-501): as the sequence (P56817 46-501) above

[6] = Liver microsome stability assay; type: in vitro ADME; details: human liver microsomes
Description: (§1) Liver microsome stability assay
(§2) A 1 µL sample of 1 mM FAH65 and its enantiomers in 100% DMSO was added to 1 mL of 0.5 mg/mL human liver microsomes (Thermo Fisher Scientific, Cat# HMMPL) in PBS pH 7.4, 2 mM NADPH, and 2 mM MgCl2; and incubated at 37 °C for 120 min. Aliquots (50 µL) of the microsome solution were taken […]
quenching solution containing an internal standard. Solutions were clarified by centrifugation (16K x g, 5 min) and supernatants transferred to new tubes and lyophilized. Samples were reconstituted in 100 µL of 50/50/0.1 water/acetonitrile/formic acid prior to analysis via LC-MS/MS.
Normalized chromatographic peak areas were plotted at each time point and the half-life (t1/2) of compound in liver microsomes was determined by using the trendline equation to calculate the time at which compound abundance was 50% of that at timepoint 0 (T0).
(§3) One µL FAH65 and its enantiomers (1 mM in 100% DMSO) was added to human peripheral blood plasma (Cat#70039, Stemcell Technologies Inc) diluted 2-fold in PBS (1000 µL, pH 7.4) and incubated […]
and 180 min, and added to a 200 µL 100% acetonitrile reaction quenching solution containing an internal standard. Solutions were clarified by centrifugation (16K x g, 5 min) and supernatants were transferred to new tubes and lyophilized. […]

[7] = Kinetic solubility assay; type: physicochemical; details: PBS pH 7.4, 37 °C
Description: FAH65 and its enantiomers at 10 mM in 100% DMSO was diluted in PBS pH 7.4 to 100, 10, 1, and 0.1 µM; plus, a vehicle-only control. The solutions were incubated at 37 °C for 90 min and centrifuged at 16K x g for 5 min. An aliquot of each supernatant was analyzed by LC-MS/MS. A standard curve was generated by plotting the known amount of analyte per standard in DMSO vs. chromatographic peak […]
Kinetic solubility (µM) was calculated using the trendline equation with maximum chromatographic peak area observed in the aqueous sample. (Table S3)
as §1, §2
quenching solution containing an internal standard. Solutions were clarified by centrifugation (16K x g, 5 min) and supernatants transferred to new tubes and lyophilized. Samples were reconstituted in 100 µL of 50/50/0.1 water/acetonitrile/formic acid prior to analysis via LC-MS/MS. […]
as §3

[8] = Plasma stability assay; type: in vitro ADME; details: human plasma, 37 °C, 180 min
Description: The effects of candidate ASBIs on BACE2 activity was assessed using the R&D Systems BACE2 activity assay kit (Catalog #: 4097-AS and ES010) formatted from to the manufacturers. For the assay, 4 μL of assay buffer was added to each well, followed by 2 μL of BACE2 diluted in assay buffer to 10 ng/µL.
Then, 2 μL of inhibitor, at the appropriate concentrations were added to the wells and incubated for 30 minutes at room temperature. For all dilutions of inhibitor, drug stock solutions of 10 mM in DMSO were diluted to 50 μM in water; subsequent dilutions were in 0.5% DMSO. Afterwards, 2 μL of fluorogenic BACE2 substrate, diluted to 50 μM in assay buffer, were added to each well, after which the signal generated was read every 30 minutes at 25 °C for 2 hr (Fig S2).
FAH65 and its enantiomers at 10 mM in 100% DMSO was diluted in PBS pH 7.4 to 100, 10, 1, and 0.1 µM; plus, a vehicle-only control. The solutions were incubated at 37 °C for 90 min and centrifuged at 16K x g for 5 min. An aliquot of each supernatant was analyzed by LC-MS/MS. […]
Kinetic solubility (µM) was calculated using the trendline equation with maximum chromatographic peak area observed in the aqueous sample. […]
([…]® CAN, Chiral Technologies, Cat#H15L-109, 5 µm 50 x 4 mm). […] The retention time of the compound (tr) and injection peak were recorded.
The percent protein binding (P) was calculated using the following equations: […]

[9] = target: T2, human serum albumin (HSA) (Homo sapiens, UniProt P02768); assay: Human serum albumin (HSA) binding assay; type: in vitro ADME
T2 construct: purchased Chiral Technologies H15L-109
T2 sequence (P02768 25-609): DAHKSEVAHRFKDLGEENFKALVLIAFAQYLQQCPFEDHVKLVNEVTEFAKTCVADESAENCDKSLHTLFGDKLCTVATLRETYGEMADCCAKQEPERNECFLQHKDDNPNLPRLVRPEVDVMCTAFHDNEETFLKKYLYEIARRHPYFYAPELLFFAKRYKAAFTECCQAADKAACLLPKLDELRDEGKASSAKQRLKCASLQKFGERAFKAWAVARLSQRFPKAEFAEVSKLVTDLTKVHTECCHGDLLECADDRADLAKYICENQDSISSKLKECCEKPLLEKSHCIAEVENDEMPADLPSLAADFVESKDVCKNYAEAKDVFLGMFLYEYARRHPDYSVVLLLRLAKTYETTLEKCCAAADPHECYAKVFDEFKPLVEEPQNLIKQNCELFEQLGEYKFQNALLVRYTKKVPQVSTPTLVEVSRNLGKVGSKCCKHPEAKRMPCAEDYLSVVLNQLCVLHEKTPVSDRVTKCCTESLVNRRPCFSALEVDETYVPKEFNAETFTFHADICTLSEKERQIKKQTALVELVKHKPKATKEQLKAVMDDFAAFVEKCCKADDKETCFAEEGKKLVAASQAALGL
Description: Human serum albumin (HSA) binding assay
The liquid chromatography-ultraviolet/visible spectroscopy (LC-UV/Vis) assay was performed on a 1290 Infinity HPLC system (Agilent Technologies) with an HPLC column containing immobilized HSA
([…]® CAN, Chiral Technologies, Cat#H15L-109, 5 µm 50 x 4 mm). The HPLC method utilized an isocratic gradient containing 100% 6.7 mM phosphate buffer saline (pH 7.4). The retention time of the compound (tr) and injection peak were recorded.
The percent protein binding (P) was calculated using the following equations:
K’ = (tr – tm) / tm; P = 100 x [K’ / (K’ + 1)] […]
The […]
(§4) KIAM = (tr – t0) / t0; Pm = (KIAM / MW4) x 1010
(§5) Compounds with a Pm >0.85 are predicted to be BBB permeable (CNS+) at pH 7.4.
Brain Tissue Binding Assay […]
Cat#23235). Brain homogenate was diluted to 20 mg/mL in PBS (pH 7.4) and added to Slide-A-Lyzer™ MINI Dialysis Devices, 10K MWCO dialysis cups (Thermo Fisher Scientific, Cat#PI88401) in a 48-well plate containing PBS (500 µL; pH 7.4). 1 µL of 1 mM compound was added to the brain homogenate (final concentration: 2 µM compound, 0.5% DMSO) and incubated on a rocker for 4.5 hours at 37 °C. 50 µL of brain homogenate (within the dialysis cup) and PBS (within the 48-well plate) were transferred to new microcentrifuge tubes containing 200 µL of quenching reagent (100% acetonitrile) containing internal […]
standard. […]

[10] = Brain tissue binding assay; type: in vitro ADME, mouse; details: brain homogenate, 2 µM compound
Description: The […]
as §4, §5
Brain Tissue Binding Assay
Brain tissue was homogenized in PBS (pH 7.4) (1: 3 weight(mg)/volume(µL)) and the protein concentration determined using the Micro BCA™ Pr otein Assay Kit (Thermo Fisher Scientific, Cat#23235). Brain homogenate was diluted to 20 mg/mL in PBS (pH 7.4) and added to Slide-A-Lyzer™ MINI Dialysis Devices, 10K MWCO dialysis cups (Thermo Fisher Scientific, Cat#PI88401) in a 48-well plate containing PBS (500 µL; pH 7.4). 1 µL of 1 mM compound was added to the brain homogenate (final concentration: 2 µM compound, 0.5% DMSO) and incubated on a rocker for 4.5 hours at 37 °C. 50 µL of brain homogenate (within the dialysis cup) and PBS (within the 48-well plate) were transferred to new microcentrifuge tubes containing 200 µL of quenching reagent (100% acetonitrile) containing internal standard. Solutions were clarified by centrifugation (16,000 x g, 5 min) and the supernatants were transferred to new tubes and lyophilized. Samples were reconstituted in 100 µL of 50/50/0.1 (Water/Acetonitrile/Formic Acid) prior to analysis via LC-MS/MS.
The % of the unbound drug was calculated using the following equation: fubound = [normalized peak area in buffer side / normalized peak area in brain side] x 100

[11] = Pilot PK of FAH65 vs. verubecestat in rats; type: in vivo, rat; details: oral gavage, 30 mg/kg

brain permeability [1]: brain permeable | IC50 [2]: 5 to 10 µM and ~10 µM
Compound: CN1C(=O)C(c2ccccc2)(c2cc(F)cc(F)c2)N=C1N (centres unmarked) [FAH1]
Aβ42 ([3]; 5 μM): decreased

Kd [4]: ~0.3 µM | brain permeability [1]: had brain permeability | inhibition of SEAP-NRG cleavage [5]: no SEAP-NRG cleavage | inhibition at 1 µM ([2]; at ∼1 μM, read-out: inhibition of BACE1 cleavage of APP): 50% | IC50 [2]: 1 to 4 µM and ~1 µM and 0.5 to 1 µM
Compound: Cc1cc(C2(c3cc(F)cc(F)c3)N=C(N)N(C)C2=O)ccc1OC(F)F (centres unmarked) [FAH3]
Aβ1-42 production ([3]; 1 μM): decreased

Microsomal stability T1/2 [6]: 0.4 h | Activity in the P5-P5′ assay ([2]; in words): inactive | solubility kinetic at 90 min [7]: 87 µM (≈ 36.8 µg/mL) | Plasma stability t1/2 [8]: > 3 h | Plasma (HSA) binding, funbound [9]: 0.8% | Brain tissue binding, funbound [10]: 6.2%
Compound: Cc1cc(C2(c3cccc(-c4cncnc4)c3)N=C(N)N(C)C2=O)ccc1OC(F)F (stereo not drawn) [FAH65E(+)]

Cmax ([11]; both sexes, Sprague-Dawley, rat, brain): 157 ng/g | time of brain Cmax [11]: 2 h
Compound: CN1C(=N)N[C@](C)(c2cc(NC(=O)c3ccc(F)cn3)ccc2F)CS1(=O)=O [Veru, verubecestat, reference compound]

Source: publication PMC12491701, “Discovery of an APP-selective BACE1 inhibitor for Alzheimer's disease” (Neurotherapeutics, 2025)
